Reference: the supplement of paper PMC10307832

Tests used:
Assay in all cases: relative viability (nuclei count vs DMSO), 5 days (fraction); higher = more cells survive
NCI-H1915 = system: NCI-H1915
Procedure, shortened: (§1)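 Lung cancer cell lines in 1536-well plates got either a single drug or a fixed anchor-drug dose together with five library-drug doses (not always all listed) in √10 steps, by pin tool, on the day after seeding. Nuclei were counted after 5 days, and relative viability is the treated-to-vehicle ratio of nuclei counts. Values are medians of duplicate plates.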

UMC-11 = system: UMC-11
Procedure, shortened: as §1

SK-LU-1 = system: SK-LU-1
Procedure, shortened: as §1

HOP-62 = system: HOP-62
Procedure, shortened: as §1

NCI-H2009 = system: NCI-H2009
Procedure, shortened: as §1

NCI-H2085 = system: NCI-H2085
Procedure, shortened: as §1

NCI-H1944 = system: NCI-H1944
Procedure, shortened: as §1

LXF-289 = system: LXF-289
Procedure, shortened: as §1

NCI-H1793 = system: NCI-H1793
Procedure, shortened: as §1

LU99A = system: LU99A
Procedure, shortened: as §1

HCC-366 = system: HCC-366
Procedure, shortened: as §1

LC-2-ad = system: LC-2-ad
Procedure, shortened: as §1

NCI-H1792 = system: NCI-H1792
Procedure, shortened: as §1

HCC-78 = system: HCC-78
Procedure, shortened: as §1

NCI-H460 = system: NCI-H460
Procedure, shortened: as §1

COR-L 105 = system: COR-L 105
Procedure, shortened: as §1

A-427 = system: A-427
Procedure, shortened: as §1

NCI-H358 = system: NCI-H358
Procedure, shortened: as §1

NCI-H2170 = system: NCI-H2170
Procedure, shortened: as §1

EPLC-272H = system: EPLC-272H
Procedure, shortened: as §1

NCI-H1666 = system: NCI-H1666
Procedure, shortened: as §1

SW 900 = system: SW 900
Procedure, shortened: as §1

Which results are given for `Cc1sc2c(c1C)C(c1ccc(Cl)cc1)=N[C@@H](CC(=O)OC(C)(C)C)c1nnc(C)n1-2` [JQ1] + Nc1nc2[nH]cc(CCc3ccc(C(=O)N[C@@H](CCC(=O)O)C(=O)O)cc3)c2c(=O)[nH]1 [Pemetrexed] (partner 0.2 µM)?
relative viability (NCI-H1915; first compound 0.04 µM): 0.46; relative viability (NCI-H1915; first compound 0.4 µM): 0.323; relative viability (NCI-H1915; first compound 1.265 µM): 0.295; relative viability (NCI-H1915; first compound 4 µM): 0.167; relative viability (UMC-11; first compound 0.04 µM): 0.73; relative viability (UMC-11; first compound 0.1265 µM): 0.584; relative viability (UMC-11; first compound 0.4 µM): 0.352; relative viability (UMC-11; first compound 1.265 µM): 0.254; relative viability (UMC-11; first compound 4 µM): 0.193; relative viability (SK-LU-1; first compound 0.04 µM): 0.974; relative viability (SK-LU-1; first compound 0.1265 µM): 0.766; relative viability (SK-LU-1; first compound 0.4 µM): 0.607; relative viability (SK-LU-1; first compound 1.265 µM): 0.278; relative viability (SK-LU-1; first compound 4 µM): 0.181; relative viability (HOP-62; first compound 0.04 µM): 0.271; relative viability (HOP-62; first compound 0.1265 µM): 0.266; relative viability (HOP-62; first compound 0.4 µM): 0.26; relative viability (HOP-62; first compound 1.265 µM): 0.137; relative viability (HOP-62; first compound 4 µM): 0.106; relative viability (NCI-H2009; first compound 0.04 µM): 0.958; relative viability (NCI-H2009; first compound 0.1265 µM): 0.795; relative viability (NCI-H2009; first compound 0.4 µM): 0.954; relative viability (NCI-H2009; first compound 1.265 µM): 0.459; relative viability (NCI-H2009; first compound 4 µM): 0.234; relative viability (NCI-H2085; first compound 0.04 µM): 0.738; relative viability (NCI-H2085; first compound 0.1265 µM): 0.721; relative viability (NCI-H2085; first compound 0.4 µM): 0.668; relative viability (NCI-H2085; first compound 1.265 µM): 0.403; relative viability (NCI-H2085; first compound 4 µM): 0.374; relative viability (NCI-H1944; first compound 0.04 µM): 0.74; relative viability (NCI-H1944; first compound 0.1265 µM): 0.565; relative viability (NCI-H1944; first compound 0.4 µM): 0.466; relative viability (NCI-H1944; first compound 1.265 µM): 0.446; relative viability (NCI-H1944; first compound 4 µM): 0.438; relative viability (LXF-289; first compound 0.04 µM): 0.915; relative viability (LXF-289; first compound 0.1265 µM): 0.808; relative viability (LXF-289; first compound 0.4 µM): 0.867; relative viability (LXF-289; first compound 1.265 µM): 0.59; relative viability (LXF-289; first compound 4 µM): 0.541; relative viability (NCI-H1793; first compound 0.04 µM): 0.748; relative viability (NCI-H1793; first compound 0.1265 µM): 0.81; relative viability (NCI-H1793; first compound 0.4 µM): 0.648; relative viability (NCI-H1793; first compound 1.265 µM): 0.661; relative viability (NCI-H1793; first compound 4 µM): 0.78; relative viability (LU99A; first compound 0.04 µM): 0.173; relative viability (LU99A; first compound 0.4 µM): 0.167; relative viability (LU99A; first compound 1.265 µM): 0.15; relative viability (LU99A; first compound 4 µM): 0.153; relative viability (HCC-366; first compound 0.04 µM): 0.16; relative viability (HCC-366; first compound 0.4 µM): 0.136; relative viability (HCC-366; first compound 1.265 µM): 0.13; relative viability (HCC-366; first compound 4 µM): 0.104; relative viability (LC-2-ad; first compound 0.04 µM): 0.268; relative viability (LC-2-ad; first compound 0.1265 µM): 0.258; relative viability (LC-2-ad; first compound 0.4 µM): 0.244; relative viability (LC-2-ad; first compound 1.265 µM): 0.256; relative viability (LC-2-ad; first compound 4 µM): 0.209; relative viability (NCI-H1792; first compound 0.04 µM): 0.705; relative viability (NCI-H1792; first compound 0.1265 µM): 0.699; relative viability (NCI-H1792; first compound 0.4 µM): 0.434; relative viability (NCI-H1792; first compound 1.265 µM): 0.15; relative viability (NCI-H1792; first compound 4 µM): 0.0524; relative viability (HCC-78; first compound 0.04 µM): 0.87; relative viability (HCC-78; first compound 0.1265 µM): 0.957; relative viability (HCC-78; first compound 0.4 µM): 0.977; relative viability (HCC-78; first compound 1.265 µM): 0.91; relative viability (HCC-78; first compound 4 µM): 0.866; relative viability (NCI-H460; first compound 0.04 µM): 0.0603; relative viability (NCI-H460; first compound 0.1265 µM): 0.0567; relative viability (NCI-H460; first compound 0.4 µM): 0.0624; relative viability (NCI-H460; first compound 1.265 µM): 0.0611; relative viability (NCI-H460; first compound 4 µM): 0.07; relative viability (COR-L 105; first compound 0.04 µM): 0.818; relative viability (COR-L 105; first compound 0.1265 µM): 0.566; relative viability (COR-L 105; first compound 0.4 µM): 0.742; relative viability (COR-L 105; first compound 1.265 µM): 0.385; relative viability (COR-L 105; first compound 4 µM): 0.413; relative viability (A-427; first compound 0.04 µM): 0.988; relative viability (A-427; first compound 0.1265 µM): 0.794; relative viability (A-427; first compound 0.4 µM): 0.994; relative viability (A-427; first compound 1.265 µM): 0.914; relative viability (A-427; first compound 4 µM): 0.639; relative viability (NCI-H358; first compound 0.04 µM): 0.185; relative viability (NCI-H358; first compound 0.1265 µM): 0.198; relative viability (NCI-H358; first compound 0.4 µM): 0.199; relative viability (NCI-H358; first compound 1.265 µM): 0.16; relative viability (NCI-H358; first compound 4 µM): 0.153; relative viability (NCI-H2170; first compound 0.04 µM): 0.257; relative viability (NCI-H2170; first compound 0.1265 µM): 0.263; relative viability (NCI-H2170; first compound 0.4 µM): 0.248; relative viability (NCI-H2170; first compound 1.265 µM): 0.238; relative viability (NCI-H2170; first compound 4 µM): 0.194; relative viability (EPLC-272H; first compound 0.04 µM): 0.309; relative viability (EPLC-272H; first compound 0.1265 µM): 0.336; relative viability (EPLC-272H; first compound 0.4 µM): 0.29; relative viability (EPLC-272H; first compound 1.265 µM): 0.298; relative viability (EPLC-272H; first compound 4 µM): 0.317; relative viability (NCI-H1666; first compound 0.04 µM): 0.801; relative viability (NCI-H1666; first compound 0.1265 µM): 0.786; relative viability (NCI-H1666; first compound 0.4 µM): 0.697; relative viability (NCI-H1666; first compound 1.265 µM): 0.659; relative viability (NCI-H1666; first compound 4 µM): 0.602; relative viability (SW 900; first compound 0.04 µM): 0.472; relative viability (SW 900; first compound 0.1265 µM): 0.477; relative viability (SW 900; first compound 0.4 µM): 0.349; relative viability (SW 900; first compound 1.265 µM): 0.19; relative viability (SW 900; first compound 4 µM): 0.195
